Experiments:
Type in all cases: physicochemical
[1] = Storage stability of Form CSI, purity by HPLC and crystalline form by XRPD
Procedure: (§1) XRPD patterns in the present disclosure were acquired by a Bruker D8 DISCOVER X-ray powder diffractometer. The parameters of the X-ray powder diffraction method of the present disclosure are as follows: • X-Ray source: Cu, Kα • Kα1 (Å): 1.54060; Kα2 (Å): 1.54439 • Kα2/Kα1 intensity ratio: 0.50 • Voltage: 40 kV • Current: 40 mA • Scan range (20): from 4.0 degree to 40.0 degree
A certain amount of Form CSI prepared by the present disclosure was stored under conditions of 25° C./60% RH, 40° C./75% RH and 60° C./75% RH. The purity and crystalline form were checked by HPLC and XRPD. The results are listed in Table 3, and the XRPD overlay is substantially as depicted in FIG. 7 and FIG. 8. […] Under 60° C./75% RH, it remains stable for at least 1 month with its purity also essentially unchanged, indicating very good stability even under stress conditions.

[2] = Wet ball milling (grinding stability); details: for Solid form after grinding: wet ball milling, 1800 rpm for 10 min
Procedure: as §1
A certain amount of Form CSI solid was placed in a centrifuge tube, and about 10 μL of corresponding solvent was added inside, along with a 5 mm grinding ball. The centrifuge tube containing the sample was installed on the GT300 vibration ball mill and subjected to wet ball milling at 1800 rpm for 10 min.

[3] = DVS weight gain at various humidity (hygroscopicity / humidity stability)
Procedure: Purge gas: N2DVS data in the present disclosure were measured via an SMS (Surface Measurement Systems Ltd.) intrinsic DVS instrument. The instrument control software is DVS-Intrinsic control software. Typical parameters for DVS test are as follows: • Temperature: 25° C. • Gas and flow rate: N2, 200 mL/min • RH range: 0% RH to 95% RH
A certain amount of Form CSI was used to test the weight gain at various humidity by a DVS instrument. The weight gains at each relative humidity were recorded in a cycle of 60% RH-95% RH-0% RH-95% RH-0% RH. […] The XRPD overlay before and after DVS test is substantially as depicted in FIG. 11.

[4] = 25° C./60% RH, Open package, 6 months
[5] = 25° C./60% RH, Sealed package, 6 months
[6] = 40° C./75% RH, Open package, 6 months
[7] = 40° C./75% RH, Sealed package, 6 months
[8] = 60° C./75% RH, Open package, 1 month
[9] = 60° C./75% RH, Sealed package, 1 month
[10] = wet ball milling at 1800 rpm for 10 min, water or ethanol

Q: For `CCC(=O)N[C@@H]1CCCc2c(-c3ccc4c(c3)CCC(=O)N4C)cncc21` [Form CSI, (+)-(R)—N-(4-(1-methyl-2-oxo-1,2,3,4-tetrahydroquinolin-6-yl)-5,6,7,8-tetrahydroisoquinolin-8-yl) propionamide], which “Time Form CSI remains stable with purity essentially unchanged” value ([1]; 25° C./60% RH) is on record?
A: at least 6 months

Q: What about the Purity [1, 4] of the same compound?
A: 99.27%

Q: What about the Solid form [1, 4] of the same compound?
A: Form CSI

Q: And the Purity [1, 5]?
A: 99.22%

Q: And the Solid form [1, 5]?
A: Form CSI

Q: What about the “Time Form CSI remains stable with purity essentially unchanged” value ([1]; 40° C./75% RH) of the same compound?
A: at least 6 months

Q: What about the Purity [1, 6] of the same compound?
A: 99.26%

Q: What about the Solid form [1, 6] of the same compound?
A: Form CSI

Q: What about the Purity [1, 7] of the same compound?
A: 99.21%

Q: What about the Solid form [1, 7] of the same compound?
A: Form CSI

Q: And the “Time Form CSI remains stable with purity essentially unchanged” value ([1]; 60° C./75% RH)?
A: at least 1 month

Q: What about the Purity [1, 8] of the same compound?
A: 99.26%

Q: What about the Solid form [1, 8] of the same compound?
A: Form CSI

Q: And the Purity [1, 9]?
A: 99.24%

Q: What about the Solid form [1, 9] of the same compound?
A: Form CSI

Q: And the Purity ([1]; Initial)?
A: 99.23%

Q: And the Solid form ([1]; Initial)?
A: Form CSI

Q: And the “Crystalline form before and after wet ball milling” value [2, 10]?
A: remains unchanged

Q: What about the “Crystallinity after wet ball milling” value [2, 10] of the same compound?
A: no significant decrease

Q: And the “Solid form after grinding” value ([2]; Ethanol)?
A: Form CSI

Q: What about the “Solid form after grinding” value ([2]; Water) of the same compound?
A: Form CSI

Q: What about the “Form change before and after DVS test (XRPD)” value ([3]; cycle of 60% RH-95% RH-0% RH-95% RH-0% RH) of the same compound?
A: No form change

Q: And the Weight gain ([3]; from 60% RH to 80% RH, DVS, 25° C.)?
A: 0.34%
